Read-outs that look alike come from different tables or passages of the source.
Columns and labels:
[1] = molecular target: T1, BuChE (EC 3.1.1.8) from horse serum (Equus caballus, UniProt P81908); test: biochemical; conditions: eqBuChE, mean ± SEM of triplicate independent experiments
T1 construct: BuChE (EC 3.1.1.8, from equine serum, C0663); purchased Sigma-Aldrich C0663; host or cells: equine serum (natural source)
Method: (§1) AChE (EC 3.1.1.7, Type VI-S, from electric eel, C3389) and BuChE (EC 3.1.1.8, from equine serum, C0663), 5,5’-dithiobis (2-nitrobenzoic acid) (DTNB, D218200), acetylthiocholine iodide (ATC, A5751) and butyrylthiocholine iodide (BTC, B3253) used as substrates were obtained from Sigma-Aldrich (St. Louis, MO).
(§2) The inhibitory capacity of the synthesised compounds on AChE and BuChE biological activity in this paper were evaluated according to our previously reported method. Briefly, AChE/BuChE stock solution was diluted with 0.2 M phosphate buffer pH 8.0 to give 2.5 units/mL (for electrophorus electricus (eeAChE) and equine serum (eqBuChE)). ATC/BTC iodide solution (0.075 M) was dissolved in deionized water. […] The assay solution was prepared as follows: potassium dihydrogen phosphate (1.36 g, 10 mmol) was dissolved in 100 ml of water. The pH of the solution was then adjusted to 8.0 ± 0.1 with KOH. Stock solutions of the test samples were dissolved in ethanol to give a final concentration of 10 − 4^ M when diluted to the final volume of 3.32 ml. For each compound, a dilution series of five different concentrations 10 − 5–10 − 9^9 M were prepared.
(§3) For measurement, a cuvette containing 3 mL of phosphate buffer, 100 μL of eeAChE or eqBuChE, 100 μL of DTNB, and 100 μL of the test compound solution was added in sequence. The reaction was initiated by adding 20 μL of ATC or BTC and the solution was mixed immediately. […] For the reference value, 100 μL of water was replaced for the test compound solution. For the blank control, additional 100 μL of water was also replaced for the enzyme solution. The measurement of each concentration was assayed in triplicate. GraphPad Prism 5 (GraphPad Software, Inc., La Jolla, CA) was used for data processing. The inhibition curve was fitted by plotting percentage enzyme activity (100% for the reference) versus the logarithm of test compound concentration. The half maximal inhibitory concentration (IC50) values were calculated according to the curve and the data were shown in mean ± SEM.
(§4) Inhibitory activities were presented as IC50 (nM).

[2] = molecular target: T2, AChE (EC 3.1.1.7) from electric eel (Electrophorus electricus, UniProt O42275); test: biochemical; conditions: for SI (selectivity index, AChE IC50/BuChE IC50): eeAChE IC50 / eqBuChE IC50; for IC50: eeAChE, mean ± SEM of triplicate independent experiments
T2 construct: AChE (EC 3.1.1.7, Type VI-S, from electric eel, C3389); purchased Sigma-Aldrich C3389; host or cells: electric eel (natural source)
T2 sequence (O42275 24-633): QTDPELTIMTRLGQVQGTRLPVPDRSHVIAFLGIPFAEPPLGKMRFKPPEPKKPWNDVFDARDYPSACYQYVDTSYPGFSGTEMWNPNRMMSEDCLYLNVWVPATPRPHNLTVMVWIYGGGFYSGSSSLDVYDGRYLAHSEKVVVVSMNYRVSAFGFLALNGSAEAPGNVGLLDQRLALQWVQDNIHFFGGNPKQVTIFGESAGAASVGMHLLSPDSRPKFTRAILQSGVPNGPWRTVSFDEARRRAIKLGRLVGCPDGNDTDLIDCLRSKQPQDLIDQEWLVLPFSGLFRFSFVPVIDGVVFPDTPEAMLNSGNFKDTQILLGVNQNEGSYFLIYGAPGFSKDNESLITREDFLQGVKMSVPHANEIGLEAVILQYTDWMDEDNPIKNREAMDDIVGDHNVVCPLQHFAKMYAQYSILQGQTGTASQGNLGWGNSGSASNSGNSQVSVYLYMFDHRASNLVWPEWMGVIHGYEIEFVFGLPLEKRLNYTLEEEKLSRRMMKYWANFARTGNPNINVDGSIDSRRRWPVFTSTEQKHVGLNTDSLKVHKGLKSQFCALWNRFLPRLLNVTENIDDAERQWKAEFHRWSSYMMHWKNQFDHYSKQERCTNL
Method: as §1, §2, §3, §4

[3] = tested on: adult male ICR mice; format: in vivo; conditions: serum, 3 mg/100 g body weight, mean ± SEM n = 6
Method: . Heparinised serum was obtained from the retrobulbar plexus 8, 22, and 36 h after the administration and were subjected to hepatotoxicity evaluation. The activity of aspartate aminotransferase (AST) and alanine aminotransferase (ALT), two indicators of liver damage, was determined by a commercial assay kit (EF551 and EF550 for ALT, EH027 and EF548 for AST, Wako, Japan). The data were analysed by Biochemical Analyzer (HITACHI 7020, Japan).
Mice were sacrificed 1 h after the collection of retrobulbar blood and livers were removed for morphological studies by using the immunohistochemical method. Two 3 mm sections of each liver extending from the hilus to the margin of the left lateral lobe were isolated using ultra-thin semiautomatic microtome (Leica RM2245, Germany) and placed in 10% buffered formaldehyde immediately, fixed for two days, and embedded together in one paraffin block by using paraffin embedding station (Leica EG1150H, Germany). Subsequently, 5 μm sections were prepared from these paraffin blocks. They were deparaffinated and stained with hematoxylin and eosin (H&E) for histopathological examinations.

[4] = tested on: scopolamine-induced cognition-impaired adult ICR mice; test: Morris water maze in scopolamine-induced cognition-impaired mice; format: in vivo; conditions: 30 mg/kg oral, scopolamine 1 mg/kg i.p., mean ± SEM n = 6
Method: Behavioral studies were performed using the Morris water maze[25] according to our method reported previously. Adult male imprinting control region (ICR) mice (8–10 weeks old, weight 20–25 g) were obtained from the Yangzhou University Medical Center (Yangzhou, China). All animal handling and experimental protocols were approved by the Institutional Animal Care and Use Committee of the China Pharmaceutical University. Scopolamine hydrobromide was purchased from Aladdin Reagents (S107418, Shanghai, China).
A circular pool (120 cm in diameter, 60 cm height) which was fixed with an escape platform (10 cm diameter) and filled to a depth of 40 cm fresh water (kept at 25 °C) composed the water maze and this water maze placed in a lit room was used to evaluate the cognition function and memory capacity of mice according to our previously described method[24] . After five days of learning and memory training, a probe trial was performed on day 6. For the evaluation of cognitive function, each mouse was individually trained on a visible-platform (labeled by a small flag, 5 cm tall) for two days and was followed by a hidden-platform version (placed 1 cm below the surface of the water) of the water maze from day 3 to day 5. All mice were subjected to two training trials daily, each of which lasted for 90 s. The time for each mouse to find the platform (a successful escape) was recorded. […] On the last day (day 6), a probe trial was given to the mice in which the platform was removed from the pool and each mouse was allowed 90 s to search for the platform. The time the animals spent to reach the missing platform location and the number of times they crossed that location were recorded.
Data for the time of escape latency, the swimming trajectory, and the number of visual platform crossings were recorded by Panlab SMART 3.0 (Panlab, S.L.U, Spain) and GraphPad Prism 5 was used to evaluate the level of memory retention.

[5] = tested on: HepG2 cells; conditions: 24 h, MTT, mean ± SEM n = 3
Method: To determine the possible drug-induced hepatotoxicity, 10d and 10g were selected for preliminary hepatotoxicity evaluation. Heparinised serum was obtained after the treatment of the compounds at 8, 22, and 36 h, respectively. […] Additionally, immunohistochemical staining was performed on the liver tissues for the histopathological study.
Methods for Cell Viability Assay. The human hepatocellular HepG2 cells were […]
Cells were seeded into 96-well plates at a density of 3
37 °C for the following experiments. For cytotoxicity test, cells were treated with 0.05- […]
Cell viability was measured by 3-(4,5- dimethylthiazol-2-yl)-2,5-diphenyltetrazolium bromide (MTT) analysis. In brief, 15 µL of MTT was added into each well and incubated at 37 °C for 4 h. The […]
viability was calculated and presented by the percentage of vehicle-treated group.

[6] = molecular target: T3, Aβ1–42 (Homo sapiens, UniProt P05067); test: Inhibition of self-induced Aβ1–42 aggregation (Thioflavin T assay); format: biochemical; conditions: ThT fluorescence, 24 h incubation, read-out: Inhibitory rate of compounds (25 μM) on self-induced Aβ1-42 aggregation
T3 construct: aliquots of 2 μL of Aβ1–42 (AS-64129–05 Anaspec Inc.); purchased Anaspec Inc. AS-64129–05
T3 sequence (P05067 672-713): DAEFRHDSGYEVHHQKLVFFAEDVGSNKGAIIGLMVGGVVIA
Method: Inhibitory effects of the compounds on self-induced Aβ1–42 aggregation were tested through a Thioflavin T (ThT)-(T3516, Sigma-Aldrich) binding assay.
The calculation of the inhibitory rate of Aβ1–42 self-induced aggregation was performed as the following equation: (1 − IFi/IFc) × 100%. IFi and IFc were the fluorescence intensities measured in the presence and absence of inhibitors, respectively, after subtracting the background fluorescence of the 5 mM ThT solution. Each compound was measured in triplicate.
A thioflavin T-based fluorometric assay was performed.

T1 sequence (P81908 whole entry): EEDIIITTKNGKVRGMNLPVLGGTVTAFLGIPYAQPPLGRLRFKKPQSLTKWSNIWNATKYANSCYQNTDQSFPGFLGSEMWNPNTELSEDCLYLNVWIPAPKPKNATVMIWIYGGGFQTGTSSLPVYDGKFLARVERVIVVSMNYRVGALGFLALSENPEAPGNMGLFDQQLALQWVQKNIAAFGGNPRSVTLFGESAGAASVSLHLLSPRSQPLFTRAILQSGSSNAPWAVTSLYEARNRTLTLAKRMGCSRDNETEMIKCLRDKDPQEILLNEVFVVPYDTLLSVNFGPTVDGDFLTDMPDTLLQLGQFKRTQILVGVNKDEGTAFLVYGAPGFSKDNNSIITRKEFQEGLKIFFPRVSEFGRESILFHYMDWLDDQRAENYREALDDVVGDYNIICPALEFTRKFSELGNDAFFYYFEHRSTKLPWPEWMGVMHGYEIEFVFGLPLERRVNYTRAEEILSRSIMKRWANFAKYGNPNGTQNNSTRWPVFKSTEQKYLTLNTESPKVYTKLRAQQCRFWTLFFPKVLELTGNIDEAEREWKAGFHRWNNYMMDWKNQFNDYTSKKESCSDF

Compound	IC50 [1]	SI (selectivity index, AChE IC50/BuChE IC50) [2]	IC50 [2]	other results
COc1cc(/C=C/C(=O)NCCNc2c3c(nc4ccccc24)CCCC3)ccc1OCc1ccc(C(C)(C)C)cc1 [Compound 10i, (E)-3–(4-((4-(tert-butyl)benzyl)oxy)-3-methoxyphenyl)-N-(2-((1,2,3,4-tetrahydroacridin-9-yl)amino)ethyl)acrylamide]	158 ± 22.8 nM	1.8	284 ± 59.2 nM	–
Nc1c2c(nc3ccccc13)CCCC2 [Tacrine]	–	–	–	ALT ([3]; 8 h after i.g. administration): 31.8 ± 2.0 U/L; AST ([3]; 8 h after i.g. administration): 133.7 ± 9.0 U/L; ALT ([3]; 22 h after i.g. administration): 25.4 ± 2.8 U/L; AST ([3]; 22 h after i.g. administration): 124.3 ± 12.1 U/L; ALT ([3]; 36 h after i.g. administration): 25.1 ± 2.7 U/L; AST ([3]; 36 h after i.g. administration): 112.4 ± 11.4 U/L; Distance to target [4]: 725.64 ± 165.15 cm; Speed in virtual platform [4]: 15.78 ± 1.03 cm/s; Latency to target ([4]; probe trial): 25.85 ± 5.52 s; Cell viability (% of vehicle) ([5]; HepG2, 25 µM): 106.2 ± 2.3 % of vehicle; Cell viability (% of vehicle) ([5]; HepG2, 125 µM): 97.2 ± 2.9 % of vehicle; Cell viability (% of vehicle) ([5]; HepG2, 250 µM): 58.9 ± 0.7 % of vehicle; Cell viability (% of vehicle) ([5]; HepG2, 500 µM): 22.7 ± 1.6 % of vehicle
COc1cc(/C=C/C(=O)NCCNc2c3c(nc4ccccc24)CCCC3)ccc1OCc1ccccc1C [Compound 10e, (E)-3–(3-methoxy-4-((2-methylbenzyl)oxy)phenyl)-N-(2-((1,2,3,4-tetrahydroacridin-9-yl)amino)ethyl)acrylamide]	98.6 ± 19.1 nM	0.7	64.5 ± 7.4 nM	–
Oc1ccc(/C=C/c2cc(O)cc(O)c2)cc1 [Resveratrol, reference compound]	–	–	–	inhibition at 25 µM [6]: 45.7%
COc1ccc(COc2ccc(/C=C/C(=O)NCCNc3c4c(nc5ccccc35)CCCC4)cc2OC)cc1 [Compound 10m, (E)-3–(3-methoxy-4-((4-methoxybenzyl)oxy)phenyl)-N-(2-((1,2,3,4-tetrahydroacridin-9-yl)amino)ethyl)acrylamide]	134 ± 11.1 nM	0.6	75.5 ± 12.8 nM	–
COc1cc(/C=C/C(=O)NCCNc2c3c(nc4ccccc24)CCCC3)ccc1OCc1ccccc1 [Compound 10a, (E)-3–(4-(benzyloxy)-3-methoxyphenyl)-N-(2-((1,2,3,4-tetrahydroacridin-9-yl)amino)ethyl)acrylamide]	215 ± 39.5 nM	0.4	92.2 ± 18.3 nM	–
COc1cccc(COc2ccc(/C=C/C(=O)NCCNc3c4c(nc5ccccc35)CCCC4)cc2OC)c1 [Compound 10l, (E)-3–(3-methoxy-4-((3-methoxybenzyl)oxy)phenyl)-N-(2-((1,2,3,4-tetrahydroacridin-9-yl)amino)ethyl)acrylamide]	195 ± 16.5 nM	0.7	143 ± 40.1 nM	–
COc1cc(/C=C/C(=O)NCCNc2c3c(nc4ccccc24)CCCC3)ccc1OCc1ccc(C)cc1 [Compound 10h, (E)-3–(3-methoxy-4-((4-methylbenzyl)oxy)phenyl)-N-(2-((1,2,3,4-tetrahydroacridin-9-yl)amino)ethyl)acrylamide]	147 ± 22.4 nM	0.9	140 ± 34.4 nM	–
COc1cc(/C=C/C(=O)NCCNc2c3c(nc4ccccc24)CCCC3)ccc1OCc1ccc(F)cc1 [Compound 10b, (E)-3–(4-((4-fluorobenzyl)oxy)-3-methoxyphenyl)-N-(2-((1,2,3,4-tetrahydroacridin-9-yl)amino)ethyl)acrylamide]	163 ± 16.6 nM	0.7	115 ± 31.2 nM	–
COc1cc(/C=C/C(=O)NCCNc2c3c(nc4ccccc24)CCCC3)ccc1OCc1ccc(C(F)(F)F)cc1 [Compound 10k, (E)-3–(3-methoxy-4-((4-(trifluoromethyl)benzyl)oxy)phenyl)-N-(2-((1,2,3,4-tetrahydroacridin-9-yl)amino)ethyl)acrylamide]	52.7 ± 6.3 nM	2.4	129 ± 16.5 nM	–
COc1cc(/C=C/C(=O)NCCNc2c3c(nc4ccccc24)CCCC3)ccc1OCc1ccc(Cl)cc1 [Compound 10c, (E)-3–(4-((4-chlorobenzyl)oxy)-3-methoxyphenyl)-N-(2-((1,2,3,4-tetrahydroacridin-9-yl)amino)ethyl)acrylamide]	62.5 ± 9.9 nM	1.6	101 ± 14.6 nM	–
COc1cc(/C=C/C(=O)NCCNc2c3c(nc4ccccc24)CCCC3)ccc1OCc1cccc(C)c1 [Compound 10f, (E)-3–(3-methoxy-4-((3-methylbenzyl)oxy)phenyl)-N-(2-((1,2,3,4-tetrahydroacridin-9-yl)amino)ethyl)acrylamide]	257 ± 3.7 nM	0.2	63.2 ± 13.5 nM	–

— paper PMC6010002, “Synthesis, pharmacology and molecular docking on multifunctional tacrine-ferulic acid hybrids as cholinesterase inhibitors against Alzheimer’s disease” (Journal of Enzyme Inhibition and Medicinal Chemistry, 2018)
